Data on 1 molecule can be found in article PMC5218480 (PLoS ONE, 2017).

The experiment concerns MV-4-11 cells. Nature of the experiment: Gene expression microarray analysis (Affymetrix PrimeView) and GSEA. The experiment is classed as cell-based, human. Also on record: RFU PODN (11730768_x_at) / Fold change /veh PODN (11730768_x_at) / RFU LINC00158 (11744669_a_at) / Fold change /veh LINC00158 (11744669_a_at) / RFU DUSP10 (11751237_a_at) / Fold change /veh DUSP10 (11751237_a_at) / RFU ID3 (11757404_x_at) / Fold change /veh ID3 (11757404_x_at) / RFU PLEKHG5 (11737974_s_at) / Fold change /veh PLEKHG5 (11737974_s_at) / RFU LRRC4B (11730491_at) / Fold change /veh LRRC4B (11730491_at) / RFU GIMAP4 (11747438_a_at) / Fold change /veh GIMAP4 (11747438_a_at) / RFU KRT8 (11758183_x_at) / Fold change /veh KRT8 (11758183_x_at) / RFU CNN1 (11734310_a_at) / Fold change /veh CNN1 (11734310_a_at) / RFU VPS37D (11726825_at) / Fold change /veh VPS37D (11726825_at) / RFU C10orf10 (11716522_x_at) / Fold change /veh C10orf10 (11716522_x_at) / RFU KIR2DL2 /// KIR2DL4 /// KIR2DL5A /// KIR2DL5B /// KIR2DS1 /// KIR2DS2 /// KIR2DS3 /// KIR2DS4 /// KIR3DL3 /// KIR3DL3 /// KIR3DS1 (11738374_at) / Fold change /veh KIR2DL2 /// KIR2DL4 /// KIR2DL5A /// KIR2DL5B /// KIR2DS1 /// KIR2DS2 /// KIR2DS3 /// KIR2DS4 /// KIR3DL3 /// KIR3DL3 /// KIR3DS1 (11738374_at) / RFU C1QL1 (11718748_at) / Fold change /veh C1QL1 (11718748_at) / RFU TMPRSS4 (11747572_a_at) / Fold change /veh TMPRSS4 (11747572_a_at) / RFU HAMP (11756126_x_at) / Fold change /veh HAMP (11756126_x_at) / RFU RNFT2 (11725882_a_at) / Fold change /veh RNFT2 (11725882_a_at) / RFU NR4A2 (11747474_a_at) / Fold change /veh NR4A2 (11747474_a_at) / RFU ABCC12 (11746883_a_at) / Fold change /veh ABCC12 (11746883_a_at) / RFU TMEM136 (11760407_x_at) / Fold change /veh TMEM136 (11760407_x_at) / RFU CLDN22 /// WWC2 (11732394_at) / Fold change /veh CLDN22 /// WWC2 (11732394_at) / RFU HLA-DPB1 (11760878_x_at) / Fold change /veh HLA-DPB1 (11760878_x_at) / RFU SPINT1 (11716480_a_at) / Fold change /veh SPINT1 (11716480_a_at) / RFU GAP43 (11754022_s_at) / Fold change /veh GAP43 (11754022_s_at) / RFU A4GNT (11735810_at) / Fold change /veh A4GNT (11735810_at) / RFU PRB3 (11715151_x_at) / Fold change /veh PRB3 (11715151_x_at) / RFU TUBB4B (11761932_at) / Fold change /veh TUBB4B (11761932_at) / RFU CAPN14 (11732068_a_at) / Fold change /veh CAPN14 (11732068_a_at) / RFU TMCC2 (11721928_a_at) / Fold change /veh TMCC2 (11721928_a_at) / RFU IRGQ (11745062_a_at) / Fold change /veh IRGQ (11745062_a_at) / RFU FAM174B (11720279_a_at) / Fold change /veh FAM174B (11720279_a_at) / RFU TMPRSS4 (11748680_a_at) / Fold change /veh TMPRSS4 (11748680_a_at) / RFU FAM212B (11763350_a_at) / Fold change /veh FAM212B (11763350_a_at) / RFU PLEKHG5 (11743358_a_at) / Fold change /veh PLEKHG5 (11743358_a_at) / RFU ZSCAN30 (11745921_a_at) / Fold change /veh ZSCAN30 (11745921_a_at) / RFU CMKLR1 (11741424_a_at) / Fold change /veh CMKLR1 (11741424_a_at) / RFU LOC101060620 /// MAPK8IP1 (11723275_at) / Fold change /veh LOC101060620 /// MAPK8IP1 (11723275_at) / RFU SPTSSB (11747773_x_at) / Fold change /veh SPTSSB (11747773_x_at) / RFU PRSS12 (11739890_at) / Fold change /veh PRSS12 (11739890_at) / RFU BIN1 (11741810_x_at) / Fold change /veh BIN1 (11741810_x_at) / RFU WNT11 (11732464_a_at) / Fold change /veh WNT11 (11732464_a_at) / RFU C10orf10 (11716521_a_at) / Fold change /veh C10orf10 (11716521_a_at) / RFU C5orf56 (11738089_at) / Fold change /veh C5orf56 (11738089_at) / RFU CYB561 (11721691_x_at) / Fold change /veh CYB561 (11721691_x_at) / RFU ANKRD19P (11752326_a_at) / Fold change /veh ANKRD19P (11752326_a_at) / RFU OR2T12 /// OR2T33 /// OR2T8 (11738714_s_at) / Fold change /veh OR2T12 /// OR2T33 /// OR2T8 (11738714_s_at) / RFU VCAN (11748164_a_at) / Fold change /veh VCAN (11748164_a_at) / RFU JSRP1 (11732532_at) / Fold change /veh JSRP1 (11732532_at) / RFU KRTAP10-11 (11738290_x_at) / Fold change /veh KRTAP10-11 (11738290_x_at) / RFU MYO3A (11730013_a_at) / Fold change /veh MYO3A (11730013_a_at) / RFU EBF3 (11725865_a_at) / Fold change /veh EBF3 (11725865_a_at) / RFU CAMK2N1 (11719241_x_at) / Fold change /veh CAMK2N1 (11719241_x_at) / RFU C5orf56 (11738088_a_at) / Fold change /veh C5orf56 (11738088_a_at) / RFU OLFML3 (11715873_a_at) / Fold change /veh OLFML3 (11715873_a_at) / RFU LOC100653217 /// NTM (11731650_a_at) / Fold change /veh LOC100653217 /// NTM (11731650_a_at) / RFU MAPK11 (11762145_a_at) / Fold change /veh MAPK11 (11762145_a_at) / RFU FIZ1 (11724087_x_at) / Fold change /veh FIZ1 (11724087_x_at) / RFU OASL (11726364_x_at) / Fold change /veh OASL (11726364_x_at) / RFU SOX15 (11748057_x_at) / Fold change /veh SOX15 (11748057_x_at) / RFU CD79A (11719716_a_at) / Fold change /veh CD79A (11719716_a_at) / RFU HIST1H1D (11736915_at) / Fold change /veh HIST1H1D (11736915_at) / RFU CASKIN2 (11723855_a_at) / Fold change /veh CASKIN2 (11723855_a_at) / RFU LOC730098 (11760151_x_at) / Fold change /veh LOC730098 (11760151_x_at) / RFU OR4N2 (11742367_at) / Fold change /veh OR4N2 (11742367_at) / RFU PRRT2 (11749266_a_at) / Fold change /veh PRRT2 (11749266_a_at) / RFU SNX32 (11753110_a_at) / Fold change /veh SNX32 (11753110_a_at) / RFU CDHR5 (11726645_a_at) / Fold change /veh CDHR5 (11726645_a_at) / RFU RCAN1 (11760418_a_at) / Fold change /veh RCAN1 (11760418_a_at) / RFU FAM167A (11723789_a_at) / Fold change /veh FAM167A (11723789_a_at) / RFU FAM26E (11764081_at) / Fold change /veh FAM26E (11764081_at) / RFU ISYNA1 (11749810_s_at) / Fold change /veh ISYNA1 (11749810_s_at) / RFU ACY1 (11761880_at) / Fold change /veh ACY1 (11761880_at) / RFU 11764098_at / Fold change /veh 11764098_at / RFU SAMD14 (11745864_x_at) / Fold change /veh SAMD14 (11745864_x_at) / RFU NPB (11741838_a_at) / Fold change /veh NPB (11741838_a_at) / RFU TMPRSS6 (11731388_a_at) / Fold change /veh TMPRSS6 (11731388_a_at) / RFU KRTAP10-2 (11738614_at) / Fold change /veh KRTAP10-2 (11738614_at) / RFU ARHGAP8 /// PRR5-ARHGAP8 (11727945_x_at) / Fold change /veh ARHGAP8 /// PRR5-ARHGAP8 (11727945_x_at) / RFU KRTAP5-7 /// NADSYN1 (11734609_at) / Fold change /veh KRTAP5-7 /// NADSYN1 (11734609_at) / RFU RASL12 (11751679_a_at) / Fold change /veh RASL12 (11751679_a_at) / RFU CDKN2B (11736163_a_at) / Fold change /veh CDKN2B (11736163_a_at) / RFU PRF1 (11729649_at) / Fold change /veh PRF1 (11729649_at) / RFU, ZNF638 /// ZNF638-IT1 / Fold change vs veh, ZNF638 /// ZNF638-IT1 / RFU, PANK3 / Fold change vs veh, PANK3 / RFU, SH3YL1 / Fold change vs veh, SH3YL1 / RFU, ZEB2 / Fold change vs veh, ZEB2 / RFU, NRIP1 / Fold change vs veh, NRIP1 / RFU, PTTG1IP / Fold change vs veh, PTTG1IP / RFU, CAPN2 / Fold change vs veh, CAPN2 / RFU, MED14 / Fold change vs veh, MED14 / RFU, SNORA58 / Fold change vs veh, SNORA58 / RFU, C1orf63 / Fold change vs veh, C1orf63 / RFU, LRRFIP1 / Fold change vs veh, LRRFIP1 / RFU, NDUFAF7 / Fold change vs veh, NDUFAF7 / RFU, SLC12A2 / Fold change vs veh, SLC12A2 / RFU, IBTK / Fold change vs veh, IBTK / RFU, ESF1 / Fold change vs veh, ESF1 / Fold change vs veh, TMEM50B / RFU, TAOK1 / Fold change vs veh, TAOK1 / RFU, ACBD3 / Fold change vs veh, ACBD3 / RFU, TMA16 / Fold change vs veh, TMA16 / RFU, RWDD3 / Fold change vs veh, RWDD3 / RFU, BCAT1 / Fold change vs veh, BCAT1 / RFU, EDEM3 / Fold change vs veh, EDEM3 / RFU, TMEM33 / Fold change vs veh, TMEM33 / RFU, WDR75 / Fold change vs veh, WDR75 / RFU, AHCTF1 / Fold change vs veh, AHCTF1 / RFU, TFRC / Fold change vs veh, TFRC / RFU, ZDHHC17 / Fold change vs veh, ZDHHC17 / RFU, NOM1 / Fold change vs veh, NOM1 / RFU, ARL8B / Fold change vs veh, ARL8B / RFU, ZBTB11 / Fold change vs veh, ZBTB11 / RFU, TAMM41 / Fold change vs veh, TAMM41 / RFU, KIAA1704 /// LOC100996395 / Fold change vs veh, KIAA1704 /// LOC100996395 / RFU, ING1 / Fold change vs veh, ING1 / RFU, TRMT61B / Fold change vs veh, TRMT61B / RFU, FUBP3 / Fold change vs veh, FUBP3 / RFU, TP53 / Fold change vs veh, TP53 / RFU, TNKS2 / Fold change vs veh, TNKS2 / RFU, ZFP14 / Fold change vs veh, ZFP14 / RFU, ACTR2 / Fold change vs veh, ACTR2 / RFU, PPP3R1 / Fold change vs veh, PPP3R1 / RFU, PIK3R1 / Fold change vs veh, PIK3R1 / RFU, HNRNPA1 / Fold change vs veh, HNRNPA1 / RFU, RNF170 / Fold change vs veh, RNF170 / RFU, ZNF28 / Fold change vs veh, ZNF28 / RFU, RNGTT / Fold change vs veh, RNGTT / RFU, OGT / Fold change vs veh, OGT / RFU, BRD1 / Fold change vs veh, BRD1 / RFU, MARS / Fold change vs veh, MARS / RFU, ZNF655 / Fold change vs veh, ZNF655 / RFU, FAHD1 / Fold change vs veh, FAHD1 / RFU, BDP1 / Fold change vs veh, BDP1 / RFU, LRRCC1 / Fold change vs veh, LRRCC1 / RFU, ARID1A / Fold change vs veh, ARID1A / RFU, ZNF146 / Fold change vs veh, ZNF146 / RFU, ZNF330 / Fold change vs veh, ZNF330 / RFU, GPN3 / Fold change vs veh, GPN3 / RFU, C9orf123 / Fold change vs veh, C9orf123 / RFU, N4BP2L2 / Fold change vs veh, N4BP2L2 / RFU, ARFIP1 / Fold change vs veh, ARFIP1 / RFU, FAM179B / Fold change vs veh, FAM179B / RFU, BCL10 / Fold change vs veh, BCL10 / RFU, UHRF1BP1L / Fold change vs veh, UHRF1BP1L / RFU, BET1 / Fold change vs veh, BET1 / RFU, CNOT2 / Fold change vs veh, CNOT2 / RFU, ZNF268 / Fold change vs veh, ZNF268 / Fold change vs veh, ZNF507 / RFU, DGCR2 / Fold change vs veh, DGCR2 / RFU, WDSUB1 / Fold change vs veh, WDSUB1 / Fold change vs veh, HSP90B1 /// MIR3652 / RFU, ADSS / Fold change vs veh, ADSS / RFU, GK / Fold change vs veh, GK / RFU, ZNF148 / Fold change vs veh, ZNF148 / RFU, TAF9 / Fold change vs veh, TAF9 / RFU, SLC1A5 / Fold change vs veh, SLC1A5 / RFU, SLMO2 / Fold change vs veh, SLMO2 / RFU, ABCC4 / Fold change vs veh, ABCC4 / RFU, LOC101060439 /// RAP1B / Fold change vs veh, LOC101060439 /// RAP1B / RFU, RFX7 / Fold change vs veh, RFX7 / RFU, GTPBP10 / Fold change vs veh, GTPBP10 / RFU, CNEP1R1 / Fold change vs veh, CNEP1R1 / RFU, BIVM-ERCC5 /// ERCC5 / Fold change vs veh, BIVM-ERCC5 /// ERCC5 / RFU, ILF3 / Fold change vs veh, ILF3 / RFU 11762660_at / Fold change /veh 11762660_at / RFU VCAN (11757783_s_at) / Fold change /veh VCAN (11757783_s_at) / RFU DDX43 (11728927_at) / Fold change /veh DDX43 (11728927_at) / RFU KRT8 (11758188_x_at) / Fold change /veh KRT8 (11758188_x_at) / RFU NKD1 (11759106_at) / Fold change /veh NKD1 (11759106_at) / RFU SRD5A1 (11742802_a_at) / Fold change /veh SRD5A1 (11742802_a_at) / RFU TPSAB1 /// TPSB2 (11721975_s_at) / Fold change /veh TPSAB1 /// TPSB2 (11721975_s_at) / RFU GSTM3 (11746129_a_at) / Fold change /veh GSTM3 (11746129_a_at) / RFU IL23R (11737362_x_at) / Fold change /veh IL23R (11737362_x_at) / RFU TMEM51 (11727254_a_at) / Fold change /veh TMEM51 (11727254_a_at) / RFU PIWIL2 (11732686_x_at) / Fold change /veh PIWIL2 (11732686_x_at) / RFU ORM1 (11744905_x_at) / Fold change /veh ORM1 (11744905_x_at) / RFU CCDC152 (11743942_at) / Fold change /veh CCDC152 (11743942_at) / RFU ECM1 (11717891_a_at) / Fold change /veh ECM1 (11717891_a_at) / RFU IL23R (11748794_a_at) / Fold change /veh IL23R (11748794_a_at) / RFU TNFAIP8L3 (11732012_x_at) / Fold change /veh TNFAIP8L3 (11732012_x_at) / RFU MBOAT4 (11741988_at) / Fold change /veh MBOAT4 (11741988_at) / RFU 11764193_at / Fold change /veh 11764193_at / RFU TMEM53 (11763286_at) / Fold change /veh TMEM53 (11763286_at) / RFU MAGEB2 (11727129_at) / Fold change /veh MAGEB2 (11727129_at) / RFU TMEM200A (11744735_a_at) / Fold change /veh TMEM200A (11744735_a_at) / RFU CCDC152 (11751479_a_at) / Fold change /veh CCDC152 (11751479_a_at) / RFU FAM211A (11726209_a_at) / Fold change /veh FAM211A (11726209_a_at) / RFU RGS16 (11746705_a_at) / Fold change /veh RGS16 (11746705_a_at) / RFU VCAN (11755009_s_at) / Fold change /veh VCAN (11755009_s_at) / RFU RHOB (11743442_s_at) / Fold change /veh RHOB (11743442_s_at) / RFU RGS16 (11720943_a_at) / Fold change /veh RGS16 (11720943_a_at) / RFU RGS16 (11720944_at) / Fold change /veh RGS16 (11720944_at) / RFU, VPS4B / Fold change vs veh, VPS4B / RFU, CREB1 / Fold change vs veh, CREB1 / RFU, DNAJC13 / Fold change vs veh, DNAJC13 / RFU, GNAQ / Fold change vs veh, GNAQ / RFU, CDK5R1 / Fold change vs veh, CDK5R1 / RFU, ZRANB3 / Fold change vs veh, ZRANB3 / RFU, CUL4A / Fold change vs veh, CUL4A / RFU, CCNY / Fold change vs veh, CCNY / RFU, UFL1 / Fold change vs veh, UFL1 / RFU, COG3 / Fold change vs veh, COG3 / RFU, DIAPH2 / Fold change vs veh, DIAPH2 / RFU, SKA2 / Fold change vs veh, SKA2 / RFU, AFF3 / Fold change vs veh, AFF3 / RFU, LMF1 / Fold change vs veh, LMF1 / RFU, IPO11 / Fold change vs veh, IPO11 / RFU, DFFB / Fold change vs veh, DFFB / RFU, FOXP1 / Fold change vs veh, FOXP1 / RFU, CARD8 / Fold change vs veh, CARD8 / RFU, STRN3 / Fold change vs veh, STRN3 / RFU, ADK / Fold change vs veh, ADK / RFU, RASSF2 / Fold change vs veh, RASSF2 / RFU, WIPF1 / Fold change vs veh, WIPF1 / RFU, LARP1B / Fold change vs veh, LARP1B / RFU, RASA1 / Fold change vs veh, RASA1 / RFU, RB1 / Fold change vs veh, RB1 / RFU, PPFIA1 / Fold change vs veh, PPFIA1 / RFU, MAT2A / Fold change vs veh, MAT2A / RFU, CCT5 / Fold change vs veh, CCT5 / RFU, WDR92 / Fold change vs veh, WDR92 / RFU, CUX1 / Fold change vs veh, CUX1 / RFU, TTC7A / Fold change vs veh, TTC7A / RFU, TMEM135 / Fold change vs veh, TMEM135 / RFU, DEPTOR / Fold change vs veh, DEPTOR / RFU, CPM / Fold change vs veh, CPM / RFU, DNAJB6 / Fold change vs veh, DNAJB6 / RFU, CACNA2D3 / Fold change vs veh, CACNA2D3 / RFU, DTX4 / Fold change vs veh, DTX4 / RFU, TFCP2 / Fold change vs veh, TFCP2 / RFU, GMCL1 /// GMCL1P1 / Fold change vs veh, GMCL1 /// GMCL1P1 / RFU, AEBP2 / Fold change vs veh, AEBP2 / RFU, SNHG1 /// SNORD22 /// SNORD25 /// SNORD26 /// SNORD27 /// SNORD28 /// SNORD29 /// SNORD31 / Fold change vs veh, SNHG1 /// SNORD22 /// SNORD25 /// SNORD26 /// SNORD27 /// SNORD28 /// SNORD29 /// SNORD31 / Fold change (Aza/veh), C12orf56 (ProbeSet 11735607_a_at) / Fold change (ACY-1035/veh), C12orf56 (ProbeSet 11735607_a_at) / Fold change (Aza/veh), FGFR1OP (ProbeSet 11751329_s_at) / Fold change (ACY-1035/veh), FGFR1OP (ProbeSet 11751329_s_at) / Fold change (Aza/veh), VPS36 (ProbeSet 11739960_a_at) / Fold change (ACY-1035/veh), VPS36 (ProbeSet 11739960_a_at) / RFU SYPL1 (11715823_x_at) / Fold change /veh SYPL1 (11715823_x_at) / RFU IGFBP7 (11715501_s_at) / Fold change /veh IGFBP7 (11715501_s_at) / RFU REEP3 (11722064_at) / Fold change /veh REEP3 (11722064_at) / RFU IGLL1 (11728026_x_at) / Fold change /veh IGLL1 (11728026_x_at): dose or concentration left out as unconfirmed. The settings on record: MV-4-11 cells, 48 hours.

Structures are written as SMILES.

For `Nc1ccc(-c2cccs2)cc1NC(=O)c1ccc2c(c1)cc(C1CC1)n2CCN1CCOCC1` [ACY-1035], the “RFU CMKLR1 (11741424_a_at)” value was found to be 17.99 RFU.
